Experimental data reported in article PMC8576328, “Broad-Spectrum Inhibitor of Bacterial Polyphosphate Homeostasis Attenuates Virulence Factors and Helps Reveal Novel Physiology of Klebsiella pneumoniae and Acinetobacter baumannii” (Frontiers in Microbiology, 2021).

Key:
[1] = target: T1, K. pneumoniae PPK1 (KP) (Klebsiella pneumoniae, UniProt A6TCB5); assay: biochemical; design: gene ppk
[2] = target: T1, K. pneumoniae PPK1 (KP); assay: polyP synthesis, toluidine blue A630/[…]; format: biochemical; design: gene ppk; codon-optimised gene in pET28a, C-terminal His6-tag, E. coli BL21, Ni-NTA purified
[3] = target: T2, PPK1B (Acinetobacter baumannii, UniProt A0A0D5YLD5); assay: polyP synthesis kinetics with purified enzyme, varying ATP; format: biochemical
T2 construct: gene ppk2; AB5075 PPK1B (ABUW_2907), N-terminal His6-tag

[4] = target: T3, PPK1A (Acinetobacter baumannii, UniProt A0A0D5YJ41); assay: as above; format: biochemical
T3 construct: gene ppk1; AB5075 PPK1A (ABUW_2072), C-terminal His6-tag
T3 sequence (A0A0D5YJ41 entry or part of it): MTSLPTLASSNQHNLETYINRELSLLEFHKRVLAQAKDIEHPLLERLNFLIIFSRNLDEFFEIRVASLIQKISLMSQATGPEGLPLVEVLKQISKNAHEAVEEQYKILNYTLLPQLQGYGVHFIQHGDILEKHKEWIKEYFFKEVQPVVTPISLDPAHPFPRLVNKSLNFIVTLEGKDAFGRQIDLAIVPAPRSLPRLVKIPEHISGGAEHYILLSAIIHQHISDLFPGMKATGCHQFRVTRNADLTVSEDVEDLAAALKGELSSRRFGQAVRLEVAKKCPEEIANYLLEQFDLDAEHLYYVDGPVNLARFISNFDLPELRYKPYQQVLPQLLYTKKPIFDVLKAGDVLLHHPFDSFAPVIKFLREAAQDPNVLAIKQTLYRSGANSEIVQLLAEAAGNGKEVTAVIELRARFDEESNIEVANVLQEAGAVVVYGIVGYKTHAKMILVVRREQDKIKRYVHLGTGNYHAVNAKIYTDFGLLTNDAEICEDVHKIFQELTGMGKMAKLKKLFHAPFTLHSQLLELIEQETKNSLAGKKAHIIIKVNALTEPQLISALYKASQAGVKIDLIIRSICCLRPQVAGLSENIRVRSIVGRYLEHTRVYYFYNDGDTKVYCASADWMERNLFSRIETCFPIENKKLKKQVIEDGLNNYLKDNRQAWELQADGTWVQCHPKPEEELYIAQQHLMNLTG

T1 sequence (A6TCB5 entry or part of it): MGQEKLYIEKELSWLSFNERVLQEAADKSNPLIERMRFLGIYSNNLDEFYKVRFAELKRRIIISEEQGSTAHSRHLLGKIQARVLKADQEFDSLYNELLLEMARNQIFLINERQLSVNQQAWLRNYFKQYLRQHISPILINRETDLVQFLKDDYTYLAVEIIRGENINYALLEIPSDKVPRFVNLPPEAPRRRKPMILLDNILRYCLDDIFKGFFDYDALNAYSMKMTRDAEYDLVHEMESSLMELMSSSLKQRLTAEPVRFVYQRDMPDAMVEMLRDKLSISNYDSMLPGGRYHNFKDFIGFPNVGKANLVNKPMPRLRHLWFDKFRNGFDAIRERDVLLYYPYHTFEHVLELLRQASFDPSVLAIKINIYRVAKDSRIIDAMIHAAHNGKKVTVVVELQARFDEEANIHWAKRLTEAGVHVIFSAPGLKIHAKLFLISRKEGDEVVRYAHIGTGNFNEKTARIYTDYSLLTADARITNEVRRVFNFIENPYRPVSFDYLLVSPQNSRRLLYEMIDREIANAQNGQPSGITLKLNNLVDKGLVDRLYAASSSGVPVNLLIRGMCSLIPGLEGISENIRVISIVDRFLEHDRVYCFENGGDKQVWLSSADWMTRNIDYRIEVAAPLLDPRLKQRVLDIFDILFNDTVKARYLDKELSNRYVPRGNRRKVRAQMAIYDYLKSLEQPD
T2 sequence (A0A0D5YLD5 entry or part of it): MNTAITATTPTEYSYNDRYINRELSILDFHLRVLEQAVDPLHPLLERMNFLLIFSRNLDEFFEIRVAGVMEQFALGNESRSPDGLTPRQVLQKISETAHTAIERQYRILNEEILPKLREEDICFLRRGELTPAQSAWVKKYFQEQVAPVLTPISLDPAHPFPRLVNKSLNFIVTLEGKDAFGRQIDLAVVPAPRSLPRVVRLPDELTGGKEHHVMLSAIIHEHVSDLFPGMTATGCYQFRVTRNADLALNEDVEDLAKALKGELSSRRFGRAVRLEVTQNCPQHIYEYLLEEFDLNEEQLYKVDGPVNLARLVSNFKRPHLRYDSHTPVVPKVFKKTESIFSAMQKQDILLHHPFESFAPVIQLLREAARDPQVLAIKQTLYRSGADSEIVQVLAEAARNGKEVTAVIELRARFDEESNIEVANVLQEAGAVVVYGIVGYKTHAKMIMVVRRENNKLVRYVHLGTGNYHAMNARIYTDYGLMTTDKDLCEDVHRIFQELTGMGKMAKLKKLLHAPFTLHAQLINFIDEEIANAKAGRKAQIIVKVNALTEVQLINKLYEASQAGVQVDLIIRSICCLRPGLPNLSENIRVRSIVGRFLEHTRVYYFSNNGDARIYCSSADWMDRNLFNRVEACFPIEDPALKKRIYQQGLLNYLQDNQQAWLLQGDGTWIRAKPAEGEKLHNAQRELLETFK

| Compound | Ki [1] [mM] | IC50 [2] [mM] | polyP synthesis kinetics with purified enzyme, varying ATP [3] | polyP synthesis kinetics with purified enzyme, varying ATP [4] |
| --- | --- | --- | --- | --- |
| Nc1ncnc2c1ncn2[C@@H]1O[C@H](COP(=O)(O)OP(=O)(O)OP(=O)(O)O)[C@@H](O)[C@H]1O [ATP] | 9.33 ± 1.69 | – | – | – |
| O=C1OC2(c3ccccc31)c1ccc(O)c(O)c1Oc1c2ccc(O)c1O [gallein] | – | 0.0165 | Both PPK1A and PPK1B were capable of in vitro polyP synthesis, and also exhibited inhibition by gallein | Both PPK1A and PPK1B were capable of in vitro polyP synthesis, and also exhibited inhibition by gallein |
